Experimental data as given in ChEMBL document CHEMBL5370648, “Rational Design of Bioorthogonally Activatable PROTAC for Tumor-Targeted Protein Degradation” (J Med Chem, 2023).
Each block holds one molecule with its values, some of them ahead of it. Active and inactive are the calls of the source. The calls are words filed in the database; no cut-off is given here.

Tests used:
MDA-MB-231 [1] = test: Cytotoxicity against human MDA-MB-231 cells assessed as inhbition of cell growth at 20.0 uM measured after 48 hrs by CCK-8 method; assay type: functional, cell-based
[2] = Retention time of the compound by HPLC method; assay type: physicochemical
T47D [3] = test: Cytotoxicity against human T47D cells assessed as inhbition of cell growth at 20.0 uM measured after 48 hrs by CCK-8 method; assay type: functional, cell-based
[4] = molecular target: T1, von Hippel-Lindau disease tumor suppressor/Bromodomain-containing protein 4 (Homo sapiens, UniProt O60885+P40337); test: PROTAC activity at BRD4/VHL E3 ligase in human T47D cells assessed as induction of degradation of BRD4 at upto 1000 nM incubated for 48 hrs in presence of MG132 by immunofluorescence staining assay; assay type: cell-based
[5] = molecular target: T1, von Hippel-Lindau disease tumor suppressor/Bromodomain-containing protein 4; test: PROTAC activity at BRD4/VHL E3 ligase in human MDA-MB-231 cells assessed as activation of caspase-3 expression incubated for 48 hrs by Western blot analysis; assay type: cell-based
[6] = molecular target: T1, von Hippel-Lindau disease tumor suppressor/Bromodomain-containing protein 4; test: PROTAC activity at BRD4/VHL E3 ligase in human MDA-MB-231 cells assessed as induction of degradation of intracellular BRD4 at 200 nM incubated for 48 hrs by immunofluorescence staining assay; assay type: cell-based
[7] = molecular target: T1, von Hippel-Lindau disease tumor suppressor/Bromodomain-containing protein 4; test: PROTAC activity at BRD4/VHL E3 ligase in human T47D cells assessed as decrease in BRD4 expression incubated for 48 hrs by Western blot analysis; assay type: cell-based
[8] = molecular target: T1, von Hippel-Lindau disease tumor suppressor/Bromodomain-containing protein 4; test: PROTAC activity at BRD4/VHL E3 ligase in human MCF7 cells assessed as suppression of c-Myc expression incubated for 48 hrs by Western blot analysis; assay type: cell-based
MCF7 [9] = test: Cytotoxicity against human MCF7 cells assessed as inhbition of cell growth measured after 48 hrs by CCK-8 method; assay type: functional, cell-based; conditions: MCF7, 48 h
[10] = molecular target: T1, von Hippel-Lindau disease tumor suppressor/Bromodomain-containing protein 4; test: PROTAC activity at BRD4/VHL E3 ligase in human MDA-MB-231 cells assessed as decrease in BRD4 expression incubated for 48 hrs by Western blot analysis; assay type: cell-based
[11] = molecular target: T1, von Hippel-Lindau disease tumor suppressor/Bromodomain-containing protein 4; test: PROTAC activity at BRD4/VHL E3 ligase in human T47D cells assessed as degradation of BRD4 expression incubated for 48 hrs by Western blot analysis; assay type: cell-based
[12] = molecular target: T1, von Hippel-Lindau disease tumor suppressor/Bromodomain-containing protein 4; test: PROTAC activity at BRD4/VHL E3 ligase in human MCF7 cells assessed as degradation of BRD4 expression incubated for 48 hrs by Western blot analysis; assay type: cell-based
[13] = Toxicity in BALB/c nude mouse assessed as animal death at 10 mg/kg measured after 16 days; assay type: organism-based; conditions: in vivo, 384 h, time 16 day
MCF7 [14] = test: Antitumor activity against human MCF7 cells xenografted in BALB/c nude mouse model assessed as inhibition of tumor cell proliferation by measuring reduction in Ki67 staining at 10 mg/kg administered for 16 days by immunohistochemical analysis; assay type: functional, organism-based; conditions: time 16.0 day
[15] = molecular target: T1, von Hippel-Lindau disease tumor suppressor/Bromodomain-containing protein 4; test: PROTAC activity at BRD4/VHL E3 ligase in human MCF7 cells assessed as activation of caspase-3 expression incubated for 48 hrs by Western blot analysis; assay type: cell-based
MCF7 [16] = test: Antitumor activity against human MCF7 cells xenografted in BALB/c nude mouse assessed as fold increase in tumor volume at 10 mg/kg measured at day 23 post injection; assay type: functional; conditions: time 23 day
[17] = molecular target: T1, von Hippel-Lindau disease tumor suppressor/Bromodomain-containing protein 4; test: PROTAC activity at BRD4/VHL E3 ligase in human T47D cells assessed as activation of caspase-3 expression incubated for 48 hrs by Western blot analysis; assay type: cell-based
MDA-MB-231 [18] = test: Cytotoxicity against human MDA-MB-231 cells assessed as inhbition of cell growth measured after 48 hrs by CCK-8 method; assay type: functional, cell-based; conditions: MDA-MB-231, 48 h
[19] = molecular target: T1, von Hippel-Lindau disease tumor suppressor/Bromodomain-containing protein 4; test: PROTAC activity at BRD4/VHL E3 ligase in human MCF7 cells assessed as induction of degradation of intracellular BRD4 at 200 nM incubated for 48 hrs by immunofluorescence staining assay; assay type: cell-based
[20] = molecular target: T1, von Hippel-Lindau disease tumor suppressor/Bromodomain-containing protein 4; test: PROTAC activity at BRD4/VHL E3 ligase in human MDA-MB-231 cells assessed as suppression of c-Myc expression incubated for 48 hrs by Western blot analysis; assay type: cell-based
T47D [21] = test: Cytotoxicity against human T47D cells assessed as inhbition of cell growth measured after 48 hrs by CCK-8 method; assay type: functional, cell-based
[22] = molecular target: T1, von Hippel-Lindau disease tumor suppressor/Bromodomain-containing protein 4; test: PROTAC activity at BRD4/VHL E3 ligase in human T47D cells assessed as induction of degradation of BRD4 at upto 1000 nM incubated for 48 hrs in presence of MLN4924 by immunofluorescence staining assay; assay type: cell-based
[23] = molecular target: T1, von Hippel-Lindau disease tumor suppressor/Bromodomain-containing protein 4; test: PROTAC activity at BRD4/VHL E3 ligase in human MCF7 cells assessed as decrease in BRD4 expression incubated for 48 hrs by Western blot analysis; assay type: cell-based
[24] = molecular target: T1, von Hippel-Lindau disease tumor suppressor/Bromodomain-containing protein 4; test: PROTAC activity at BRD4/VHL E3 ligase in human T47D cells assessed as induction of degradation of intracellular BRD4 at 200 nM incubated for 48 hrs by immunofluorescence staining assay; assay type: cell-based
MCF7 [25] = test: Antitumor activity against human MCF7 cells xenografted in BALB/c nude mouse assessed as tumor growth inhibition at 10 mg/kg measured after 16 days; assay type: functional, organism-based; conditions: time 16.0 day
[26] = molecular target: T1, von Hippel-Lindau disease tumor suppressor/Bromodomain-containing protein 4; test: PROTAC activity at BRD4/VHL E3 ligase in human T47D cells assessed as suppression of c-Myc expression incubated for 48 hrs by Western blot analysis; assay type: cell-based
[27] = molecular target: T1, von Hippel-Lindau disease tumor suppressor/Bromodomain-containing protein 4; test: PROTAC activity at BRD4/VHL E3 ligase in human MDA-MB-231 cells assessed as degradation of BRD4 expression incubated for 48 hrs by Western blot analysis; assay type: cell-based
[28] = molecular target: T1, von Hippel-Lindau disease tumor suppressor/Bromodomain-containing protein 4; test: In vivo PROTAC activity at BRD4/VHL E3 ligase in BALB/c nude mouse xenografted with human MCF7 cells assessed as reduction in BRD4 protein level in tumor 10 mg/kg measured after 48 hrs by Western blot analysis; assay type: functional, organism-based
MCF7 [29] = test: Antitumor activity against human MCF7 cells xenografted in BALB/c nude mouse assessed as apoptosis at 10 mg/kg measured after 48 hrs by Western blot analysis; assay type: functional, organism-based

T1 sequence (P40337 whole entry, looked up, other chains not shown): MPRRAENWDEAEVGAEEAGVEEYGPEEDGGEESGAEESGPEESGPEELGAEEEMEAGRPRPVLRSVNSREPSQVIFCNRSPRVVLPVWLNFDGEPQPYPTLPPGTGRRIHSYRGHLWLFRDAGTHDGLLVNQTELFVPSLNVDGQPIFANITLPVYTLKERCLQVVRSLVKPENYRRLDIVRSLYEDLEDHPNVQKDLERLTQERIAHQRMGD

Retention_time [2]: 19.3 min
Structure (SMILES): Cc1ncsc1-c1ccc([C@H](C)NC(=O)[C@@H]2C[C@@H](OC(=O)OC3/C=C/CCCCC3)CN2C(=O)[C@@H](NC(=O)COCCOCCOCCNC(=O)CC2N=C(c3ccc(Cl)cc3)c3c(sc(C)c3C)-n3c(C)nnc32)C(C)(C)C)cc1 (stereo not given in full)
Activity (MDA-MB-231 [1]): inactive
Activity (T47D [3]): inactive

Structure (SMILES): Cc1ncsc1-c1ccc([C@H](C)NC(=O)[C@@H]2C[C@@H](O)CN2C(=O)[C@@H](NC(=O)COCCOCCOCCNC(=O)CC2N=C(c3ccc(Cl)cc3)c3c(sc(C)c3C)-n3c(C)nnc32)C(C)(C)C)cc1 (stereo not given in full)
Activity [4]: inactive
Activity [5]: Active
Activity [6]: Active
EC50 [7]: 56.6 nM
Activity [8]: Active
IC50 (MCF7 [9]): 183 nM
EC50 [10]: 3.96 nM
Activity [11]: Active
Activity [12]: Active
Activity [13]: Toxic
Activity (MCF7 [14]): Active
Activity [15]: Active
fold change (FC) (MCF7 [16]): 1.58
Activity [17]: Active
IC50 (MDA-MB-231 [18]): 225 nM
Activity [19]: Active
Activity [20]: Active
IC50 (T47D [21]): 253 nM
Activity [22]: inactive
EC50 [23]: 50.3 nM
Activity [24]: Active
Activity (MCF7 [25]): Active
Activity [26]: Active
Activity [27]: Active
Activity [28]: Active
Retention_time [2]: 18.96 min
Activity (MCF7 [29]): Active
